# What was measured:
# XIAP BIR-3 = molecular target: T1, XIAP BIR-3 (Homo sapiens, UniProt P98170); experiment: Fluorescence polarization binding to XIAP BIR-3 with labeled peptide AbuRPF-K(5-Fam)-NH2; details: 40 nM BIR3, 5 nM labeled peptide, reported as ranges
# T1 construct: 40 nM of the respective IAP BIR3
# Method: (§1) The binding affinities of the compounds are reported as a KD value (μM). Briefly, various concentrations of test peptides were mixed with 5 nM of the fluorescently labeled peptide (i.e., a mutated N-terminal Smac peptide—AbuRPF-K(5-Fam)-NH2) and 40 nM of the respective IAP BIR3 for 15 min at RT in […] of 0.1M Potassium Phosphate buffer, pH 7.5 containing 100 mg/ml bovine g-globulin. Following incubation, the polarization values (mP) were measured on a Victor2V (available from PerkinElmer Life Sciences) using a 485 nm excitation filter and a 520 nm emission filter. The reported binding affinities (KD values) are supplied as ranges (A=<0.1 μM, B=0.1 μM to 1 μM, C=>1 μM to 10 μM, D=>10 μM).
# cIAP-1 BIR-3 = molecular target: T2, cIAP-1 BIR-3 (Homo sapiens, UniProt Q13490); experiment: Fluorescence polarization binding to cIAP-1 BIR-3 with labeled peptide AbuRPF-K(5-Fam)-NH2; details: 40 nM BIR3, 5 nM labeled peptide, reported as ranges, read-out: KD (c-IAP-1 BIR3)
# T2 construct: 40 nM of the respective IAP BIR3
# Method: as §1
# [1] = tested on: ovarian cancer cell line, SK-OV-3; experiment: SK-OV-3 cell growth inhibition (MTT, 72 hrs); type: cell-based; details: Homo sapiens, concentration giving 50% cell survival, reported as ranges
# Method: Compounds of the invention also were tested for their ability to inhibit the growth of an ovarian cancer cell line, SK-OV-3. A known assay previously used for measuring cell growth (as described in Hansen, M. B., Nielsen, S. E., and Berg, K. (1989) J. Immunol. Methods 119, 203-210 and incorporated herein by reference in its entirety) was used. Briefly, SK-OV-3 cells are seeded in 96-well plates in McCoy's medium containing 10% fetal bovine serum albumin (5,000 per well) and incubated overnight at 37° C. The next day, test compounds are added at various concentrations (0.003-10 μM) and the plates are incubated at 37° C. for an additional 72 hrs. This incubation time was considered to be optimal for measuring inhibitory effects of the different compounds tested. 50 microliters of 5 mg/mL MTT reagent is added to each well and the plates are incubated at 37° C. for another three (3) hours. At the end of the three (3) hour incubation period, 50 microliters of DMSO is added to each well to dissolve cells and the optical density (OD) of the wells is measured with a microplate reader (Victor^2 1420, Wallac, Finland) at 535 nm. Cell survival (CS) was calculated using the following equation: CS=(OD treated well/mean OD control wells)×100%.
# The CC50 (reported in the following tables), is defined as the drug concentration that results in 50% cell survival (CS), and is derived by calculating the point where the dose-response curve crosses the 50% CS point using GraphPad Prism. The reported CC50 values are supplied as ranges (A=<0.1 μM, B=0.1 μM to 1 μM, C=>1 μM to 10 μM, D=>10 μM).
# T2 sequence (Q13490 253-363 limits assumed): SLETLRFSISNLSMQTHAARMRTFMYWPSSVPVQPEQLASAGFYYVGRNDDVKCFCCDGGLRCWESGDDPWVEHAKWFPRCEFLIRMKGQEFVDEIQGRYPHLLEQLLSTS
# T1 sequence (P98170 241-356 limits assumed): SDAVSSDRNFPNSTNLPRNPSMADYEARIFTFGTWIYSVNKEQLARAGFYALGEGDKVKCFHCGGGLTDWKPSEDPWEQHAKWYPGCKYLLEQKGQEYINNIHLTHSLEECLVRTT
Kd (XIAP BIR-3),Kd (cIAP-1 BIR-3),Structure (SMILES),CC50 [1]
< 100 nM,< 100 nM,"CN[C@@H](C)C(=O)N[C@H](C(=O)N1CC[C@@H]2[C@H]1[C@@H](Oc1ccc(F)c(F)c1)CN2S(=O)(=O)CC(C)C)C(C)(C)C [Example 20, N-{1-[6-(3,4-Difluoro-phenoxy)-4-(2-methyl-propane-1-sulfonyl)-hexahydro-pyrrolo[3,2-b]pyrrole-1-carbonyl]-2,2-dimethyl-propyl}-2-methylamino-propionamide]",< 100 nM
100 to 1000 nM,< 100 nM,"CN[C@@H](C)C(=O)N[C@H](C(=O)N1CC[C@@H]2[C@H]1[C@@H](Oc1ccc(F)c(F)c1)CN2C(C)=O)C(C)(C)C [Example 21, N-{1-[4-Acetyl-6-(3,4-difluoro-phenoxy)-hexahydro-pyrrolo[3,2-b]pyrrole-1-carbonyl]-2,2-dimethyl-propyl}-2-methylamino-propionamide]",< 100 nM
< 100 nM,< 100 nM,"CN[C@@H](C)C(=O)N[C@H](C(=O)N1CC[C@@H]2[C@H]1[C@@H](Oc1ccc(F)c(F)c1)CN2C(=O)CC(C)C)C(C)(C)C [Example 22, N-{1-[6-(3,4-Difluoro-phenoxy)-4-(3-methyl-butyryl)-hexahydro-pyrrolo[3,2-b]pyrrole-1-carbonyl]-2,2-dimethyl-propyl}-2-methylamino-propionamide]",< 100 nM
< 100 nM,< 100 nM,"CNC(=O)N1C[C@H](Oc2ccc(F)c(F)c2)[C@@H]2[C@H]1CCN2C(=O)[C@@H](NC(=O)[C@H](C)NC)C(C)(C)C [Example 23, 3-(3,4-Difluoro-phenoxy)-4-[3,3-dimethyl-2-(2-methylamino-propionylamino)-butyryl]-hexahydro-pyrrolo[3,2-b]pyrrole-1-carboxylic acid methylamide]",< 100 nM
< 100 nM,< 100 nM,"CN[C@@H](C)C(=O)N[C@H](C(=O)N1CC[C@@H]2[C@H]1[C@@H](Oc1ccc(F)c(F)c1)CN2C(=O)NC(C)C)C(C)(C)C [Example 24, 3-(3,4-Difluoro-phenoxy)-4-[3,3-dimethyl-2-(2-methylamino-propionylamino)-butyryl]-hexahydro-pyrrolo[3,2-b]pyrrole-1-carboxylic acid isopropylamide]",< 100 nM
< 100 nM,< 100 nM,"CN[C@@H](C)C(=O)N[C@H](C(=O)N1CC[C@@H]2[C@H]1[C@@H](Oc1ccc(F)c(F)c1)CN2C(=O)N(C)C)C(C)(C)C [Example 25, 3-(3,4-Difluoro-phenoxy)-4-[3,3-dimethyl-2-(2-methylamino-propionylamino)-butyryl]-hexahydro-pyrrolo[3,2-b]pyrrole-1-carboxylic acid dimethylamide]",< 100 nM
< 100 nM,< 100 nM,"CNC(=O)N1C[C@H](Oc2ccc(F)cc2)[C@@H]2[C@H]1CCN2C(=O)[C@@H](NC(=O)[C@H](C)NC)C1CCCCC1 [Example 26, 4-[2-Cyclohexyl-2-(2-methylamino-propionylamino)-acetyl]-3-(4-fluoro-phenoxy)-hexahydro-pyrrolo[3,2-b]pyrrole-1-carboxylic acid methylamide]",< 100 nM
< 100 nM,< 100 nM,"CNC(=O)N1C[C@H](Oc2ccc(F)cc2)[C@@H]2[C@H]1CCN2C(=O)[C@@H](NC(=O)[C@H](C)NC)C(C)(C)C [Example 27, 4-[3,3-Dimethyl-2-(2-methylamino-propionylamino)-butyryl]-3-(4-fluoro-phenoxy)-hexahydro-pyrrolo[3,2-b]pyrrole-1-carboxylic acid methylamide]",< 100 nM
< 100 nM,< 100 nM,"CN[C@@H](C)C(=O)N[C@H](C(=O)N1CC[C@@H]2[C@H]1[C@@H](Oc1ccc(F)cc1)CN2C(=O)NC(C)C)C1CCCCC1 [Example 28, 4-[2-Cyclohexyl-2-(2-methylamino-propionylamino)-acetyl]-3-(4-fluoro-phenoxy)-hexahydro-pyrrolo[3,2-b]pyrrole-1-carboxylic acid isopropylamide]",< 100 nM
< 100 nM,< 100 nM,"CN[C@@H](C)C(=O)N[C@H](C(=O)N1CC[C@@H]2[C@H]1[C@@H](Oc1ccc(F)cc1)CN2C(=O)NC(C)C)C(C)(C)C [Example 29, 4-[3,3-Dimethyl-2-(2-methylamino-propionylamino)-butyryl]-3-(4-fluoro-phenoxy)-hexahydro-pyrrolo[3,2-b]pyrrole-1-carboxylic acid isopropylamide]",< 100 nM
< 100 nM,< 100 nM,"CN[C@@H](C)C(=O)N[C@H](C(=O)N1CC[C@@H]2[C@H]1[C@@H](OCc1ccc(F)cc1)CN2C(=O)NCc1ccccc1)C(C)(C)C [Example 30, 4-[3,3-Dimethyl-2-(2-methylamino-propionylamino)-butyryl]-3-(4-fluoro-benzyloxy)-hexahydro-pyrrolo[3,2-b]pyrrole-1-carboxylic acid benzylamide]",< 100 nM
100 to 1000 nM,< 100 nM,"CN[C@@H](C)C(=O)N[C@H](C(=O)N1CC[C@H]2NC[C@H](OCc3ccccc3)[C@H]21)C1CCCCC1 [Example 31, (S)—N—((S)-2-((3aR,6S,6aS)-6-(benzyloxy)hexahydropyrrolo[3,2-b]pyrrol-1(2H)-yl)-1-cyclohexyl-2-oxoethyl)-2-(methylamino)propanamide]",100 to 1000 nM
< 100 nM,< 100 nM,"CN[C@@H](CF)C(=O)N[C@H](C(=O)N1CC[C@@H]2[C@H]1[C@@H](OCc1ccccc1)CN2C(=O)OC(C)(C)C)C1CCCCC1 [Example 32, 3-Benzyloxy-4-[2-cyclohexyl-2-(3-fluoro-2-methylamino-propionylamino)-acetyl]-hexahydro-pyrrolo[3,2-b]pyrrole-1-carboxylic acid tert-butyl ester]",100 to 1000 nM
100 to 1000 nM,< 100 nM,"CN[C@@H](CF)C(=O)N[C@H](C(=O)N1CC[C@H]2NC[C@H](OCc3ccccc3)[C@H]21)C1CCCCC1 [Example 33, N-[2-(6-Benzyloxy-hexahydro-pyrrolo[3,2-b]pyrrol-1-yl)-1-cyclohexyl-2-oxo-ethyl]-3-fluoro-2-methylamino-propionamide]",> 10000 nM
< 100 nM,< 100 nM,"CN[C@@H](C)C(=O)N[C@H](C(=O)N1CC[C@@H]2[C@H]1[C@@H](OCc1ccc(F)cc1)CN2C(=O)OC(C)(C)C)C(C)(C)C [Example 34, 4-[3,3-Dimethyl-2-(2-methylamino-propionylamino)-butyryl]-3-(4-fluoro-benzyloxy)-hexahydro-pyrrolo[3,2-b]pyrrole-1-carboxylic acid tert-butyl ester]",< 100 nM
100 to 1000 nM,< 100 nM,"CN[C@@H](C)C(=O)N[C@H](C(=O)N1CC[C@H]2NC[C@H](OCc3ccc(F)cc3)[C@H]21)C(C)(C)C [Example 35, N-{1-[6-(4-Fluoro-benzyloxy)-hexahydro-pyrrolo[3,2-b]pyrrole-1-carbonyl]-2,2-dimethyl-propyl}-2-methylamino-propionamide ester]",< 100 nM
100 to 1000 nM,< 100 nM,"CNC(=O)N1C[C@H](OCc2ccc(F)cc2)[C@@H]2[C@H]1CCN2C(=O)[C@@H](NC(=O)[C@H](C)NC)C(C)(C)C [Example 36, 4-[3,3-Dimethyl-2-(2-methylamino-propionylamino)-butyryl]-3-(4-fluoro-benzyloxy)-hexahydro-pyrrolo[3,2-b]pyrrole-1-carboxylic acid methylamide]",< 100 nM
< 100 nM,< 100 nM,"CN[C@@H](C)C(=O)N[C@H](C(=O)N1CC[C@@H]2[C@H]1[C@@H](OCc1ccc(F)cc1)CN2C(=O)NC(C)C)C(C)(C)C [Example 37, 4-[3,3-Dimethyl-2-(2-methylamino-propionylamino)-butyryl]-3-(4-fluoro-benzyloxy)-hexahydro-pyrrolo[3,2-b]pyrrole-1-carboxylic acid isopropylamide]",< 100 nM
